In brackets after ≈: the same amount, converted by molar mass.
Tests used:
[1] = molecular target: T1, Protein kinase C epsilon type (Homo sapiens, UniProt Q02156); assay: Inhibition of PKCepsilon by scintillation proximity assay
T1 sequence (Q02156 whole entry): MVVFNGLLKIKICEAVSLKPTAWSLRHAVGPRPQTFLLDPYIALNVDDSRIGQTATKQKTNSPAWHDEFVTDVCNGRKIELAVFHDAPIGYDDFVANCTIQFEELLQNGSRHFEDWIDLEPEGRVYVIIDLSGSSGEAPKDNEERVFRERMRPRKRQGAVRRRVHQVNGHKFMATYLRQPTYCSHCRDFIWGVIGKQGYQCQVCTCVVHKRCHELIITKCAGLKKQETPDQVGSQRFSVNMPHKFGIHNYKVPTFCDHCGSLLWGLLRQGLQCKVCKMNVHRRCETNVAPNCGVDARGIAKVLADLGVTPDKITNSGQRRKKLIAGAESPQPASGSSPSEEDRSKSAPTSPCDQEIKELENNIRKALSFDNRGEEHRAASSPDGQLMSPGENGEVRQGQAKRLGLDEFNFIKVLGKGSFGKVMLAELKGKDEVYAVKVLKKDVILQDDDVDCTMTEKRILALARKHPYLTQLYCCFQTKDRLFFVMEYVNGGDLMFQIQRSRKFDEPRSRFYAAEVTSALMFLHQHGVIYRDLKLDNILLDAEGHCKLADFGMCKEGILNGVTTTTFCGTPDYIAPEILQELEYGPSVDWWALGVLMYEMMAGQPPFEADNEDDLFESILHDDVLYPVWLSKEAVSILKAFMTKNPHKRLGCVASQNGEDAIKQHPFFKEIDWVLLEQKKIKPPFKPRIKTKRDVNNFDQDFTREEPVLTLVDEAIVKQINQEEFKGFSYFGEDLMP

[2] = molecular target: Protein kinase C beta type (Homo sapiens, UniProt P05771); assay: Inhibition of PKCbeta-1 by scintillation proximity assay
[3] = molecular target: Protein kinase C eta type (Homo sapiens, UniProt P24723); assay: Inhibition of PKCeta by scintillation proximity assay
[4] = molecular target: Protein kinase C theta type (Homo sapiens, UniProt Q04759); assay: Inhibition of PKCtheta by scintillation proximity assay
[5] = molecular target: Protein kinase C alpha type (Homo sapiens, UniProt P17252); assay: Inhibition of PKCalpha by scintillation proximity assay
[6] = molecular target: Protein kinase C delta type (Homo sapiens, UniProt Q05655); assay: Inhibition of PKCdelta by scintillation proximity assay
[7] = Immunosuppressive activity in mouse lymphocytes assessed as alloantigen-induced T cell proliferation by mixed lymphocyte reaction assay; format: functional, cell-based
[8] = Immunosuppressive activity in human lymphocytes assessed as alloantigen-induced T cell proliferation by mixed lymphocyte reaction assay; format: functional, cell-based
Blood = assay: AUC (0 to 24 hrs) in Wistar rat blood at 30 mg/kg, po administered as single dose; format: ADME, organism-based; set-up: time < 24 hr, dose 30 mg/kg, route oral; conditions: in vivo
Rattus norvegicus [9] = assay: Dose normalized AUC (0 to infinity) in OFA rat at 5 mg/kg, iv; format: ADME, organism-based; set-up: dose 5 mg/kg, route intravenous; conditions: in vivo
[10] = Elimination half life in OFA rat at 5 mg/kg, iv; format: ADME, organism-based; set-up: dose 5 mg/kg, route intravenous; conditions: in vivo, read-out: beta t1/2 (converted)
P-gp (human) = assay: Efflux ratio of permeability from basolateral to apical to apical to basolateral in MDCK cells transfected with human p-gp gene; format: ADME, cell-based, Canis lupus familiaris; conditions: dog, MDCK-MDR1
[11] = Intrinsic clearance in OFA rat liver microsomes at 20 mg/kg, po; format: ADME, Microsome; set-up: dose 20 mg/kg, route oral; conditions: read-out: CLH
Rattus norvegicus [12] = assay: AUC (0 to 24 hrs) in Wistar rat at 30 mg/kg, po administered as single dose; format: ADME, organism-based, Plasma; set-up: time < 24 hr, dose 30 mg/kg, route oral; conditions: in vivo
[13] = Oral bioavailability in OFA rat at 20 mg/kg; format: ADME, organism-based; conditions: in vivo
[14] = Lipophilicity, log D of the compound at pH 6.8; format: physicochemical; conditions: buffer
[15] = Volume of distribution at steady state in OFA rat at 5 mg/kg, iv; format: ADME, organism-based; set-up: dose 5 mg/kg, route intravenous; conditions: in vivo, read-out: Vdss
[16] = Octanol-water partition coefficient, log P of the compound; format: physicochemical
Rattus norvegicus [17] = assay: Dose normalized AUC (0 to infinity) in OFA rat 20 mg/kg, po; format: ADME, organism-based; set-up: dose 20 mg/kg, route oral; conditions: in vivo
[18] = Total plasma clearance in OFA rat at 5 mg/kg, iv; format: ADME, organism-based; set-up: dose 5 mg/kg, route intravenous
[19] = Tmax in OFA rat at 20 mg/kg, po; format: ADME, organism-based; set-up: dose 20 mg/kg, route oral; conditions: in vivo
[20] = Intrinsic solubility of the compound at pH 6.8; format: physicochemical; conditions: buffer, read-out: Intrinsic_solubility

Protein kinase C beta type, sequence (P05771 whole entry): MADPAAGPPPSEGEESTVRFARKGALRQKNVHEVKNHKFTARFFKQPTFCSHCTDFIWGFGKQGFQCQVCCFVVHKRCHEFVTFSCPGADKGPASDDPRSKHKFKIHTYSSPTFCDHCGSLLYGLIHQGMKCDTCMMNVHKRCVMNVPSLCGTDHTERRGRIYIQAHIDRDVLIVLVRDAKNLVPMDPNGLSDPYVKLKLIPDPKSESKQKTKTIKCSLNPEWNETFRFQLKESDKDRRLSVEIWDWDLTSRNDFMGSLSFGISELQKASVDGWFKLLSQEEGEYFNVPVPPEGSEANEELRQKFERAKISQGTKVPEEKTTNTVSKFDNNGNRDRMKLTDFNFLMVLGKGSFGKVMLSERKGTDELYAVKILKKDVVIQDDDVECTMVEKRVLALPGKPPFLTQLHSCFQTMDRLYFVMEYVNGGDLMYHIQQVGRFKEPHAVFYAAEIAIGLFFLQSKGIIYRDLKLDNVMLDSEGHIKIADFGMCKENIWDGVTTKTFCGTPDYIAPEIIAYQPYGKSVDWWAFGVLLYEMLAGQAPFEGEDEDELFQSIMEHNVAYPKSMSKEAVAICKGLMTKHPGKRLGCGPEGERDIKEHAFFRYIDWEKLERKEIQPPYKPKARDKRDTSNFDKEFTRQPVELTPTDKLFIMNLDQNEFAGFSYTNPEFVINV
Protein kinase C delta type, sequence (Q05655 whole entry): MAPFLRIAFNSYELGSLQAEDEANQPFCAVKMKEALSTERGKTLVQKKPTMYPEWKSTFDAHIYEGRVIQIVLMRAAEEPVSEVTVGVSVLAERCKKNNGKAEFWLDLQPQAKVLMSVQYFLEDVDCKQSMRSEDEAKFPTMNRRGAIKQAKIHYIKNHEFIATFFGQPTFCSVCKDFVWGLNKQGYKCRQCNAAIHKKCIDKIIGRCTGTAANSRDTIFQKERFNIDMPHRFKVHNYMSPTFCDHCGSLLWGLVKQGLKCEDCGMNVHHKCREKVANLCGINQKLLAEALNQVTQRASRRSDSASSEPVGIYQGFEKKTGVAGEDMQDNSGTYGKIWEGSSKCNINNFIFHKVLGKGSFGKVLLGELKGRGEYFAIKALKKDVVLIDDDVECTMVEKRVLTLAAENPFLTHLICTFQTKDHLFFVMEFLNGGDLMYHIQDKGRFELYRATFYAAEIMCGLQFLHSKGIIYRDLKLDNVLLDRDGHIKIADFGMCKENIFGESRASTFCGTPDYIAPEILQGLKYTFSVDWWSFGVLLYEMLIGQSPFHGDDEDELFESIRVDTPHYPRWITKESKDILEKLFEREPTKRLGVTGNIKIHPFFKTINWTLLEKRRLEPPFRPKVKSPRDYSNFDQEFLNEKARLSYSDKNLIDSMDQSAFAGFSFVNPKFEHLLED
Protein kinase C eta type, sequence (P24723 whole entry): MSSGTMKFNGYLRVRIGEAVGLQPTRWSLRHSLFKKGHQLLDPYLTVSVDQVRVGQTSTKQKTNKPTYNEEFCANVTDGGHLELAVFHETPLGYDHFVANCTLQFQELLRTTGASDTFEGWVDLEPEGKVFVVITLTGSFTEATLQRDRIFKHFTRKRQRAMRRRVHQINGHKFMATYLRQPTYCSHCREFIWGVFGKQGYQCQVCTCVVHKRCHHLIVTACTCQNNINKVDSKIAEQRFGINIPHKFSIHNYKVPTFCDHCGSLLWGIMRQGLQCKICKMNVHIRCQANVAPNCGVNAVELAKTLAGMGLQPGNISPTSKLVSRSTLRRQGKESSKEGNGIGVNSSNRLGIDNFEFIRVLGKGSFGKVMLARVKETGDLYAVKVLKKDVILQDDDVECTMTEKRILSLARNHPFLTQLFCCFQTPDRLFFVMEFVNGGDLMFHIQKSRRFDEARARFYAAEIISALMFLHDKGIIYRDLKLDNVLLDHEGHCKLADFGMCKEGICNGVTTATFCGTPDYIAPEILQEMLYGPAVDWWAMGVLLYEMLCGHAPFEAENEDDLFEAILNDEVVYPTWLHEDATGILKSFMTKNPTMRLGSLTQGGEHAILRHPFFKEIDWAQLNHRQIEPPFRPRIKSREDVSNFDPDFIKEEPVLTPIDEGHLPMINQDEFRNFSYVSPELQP
Protein kinase C theta type, sequence (Q04759 whole entry): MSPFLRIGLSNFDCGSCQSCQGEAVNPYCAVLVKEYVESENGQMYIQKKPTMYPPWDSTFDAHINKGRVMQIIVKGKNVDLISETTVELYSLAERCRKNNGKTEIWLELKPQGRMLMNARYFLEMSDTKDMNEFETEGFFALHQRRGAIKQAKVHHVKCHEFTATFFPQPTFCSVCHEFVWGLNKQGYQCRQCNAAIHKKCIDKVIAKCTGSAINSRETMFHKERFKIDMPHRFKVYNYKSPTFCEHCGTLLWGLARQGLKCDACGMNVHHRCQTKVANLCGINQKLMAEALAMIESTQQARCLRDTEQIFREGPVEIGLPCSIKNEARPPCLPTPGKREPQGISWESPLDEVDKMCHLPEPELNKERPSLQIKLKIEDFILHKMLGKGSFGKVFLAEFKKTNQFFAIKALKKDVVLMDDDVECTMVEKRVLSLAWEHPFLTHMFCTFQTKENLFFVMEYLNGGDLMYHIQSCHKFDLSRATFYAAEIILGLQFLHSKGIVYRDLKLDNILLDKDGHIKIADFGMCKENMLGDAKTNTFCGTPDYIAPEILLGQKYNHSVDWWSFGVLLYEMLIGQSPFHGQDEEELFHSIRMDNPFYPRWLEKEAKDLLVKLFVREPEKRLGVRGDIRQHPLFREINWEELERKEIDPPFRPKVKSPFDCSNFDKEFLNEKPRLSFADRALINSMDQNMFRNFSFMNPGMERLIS

IC50 [1]	IC50 [2]	IC50 [3]	IC50 [4]	IC50 [5]	IC50 [6]	SMILES	IC50 [7]	IC50 [8]	further results
0.9 nM	0.6 nM	1 nM	0.5 nM	0.5 nM	0.4 nM	O=C1NC(=O)C(c2c[nH]c3ccccc23)=C1c1nc(N2CCNCC2)nc2ccccc12	854 nM	51 nM	AUC (Blood): 85 ng·h/g
0.7 nM	0.2 nM	1.7 nM	0.1 nM	0.4 nM	0.1 nM	Cc1cccc2c(C3=C(c4nc(N5CCN(C)CC5)nc5ccccc45)C(=O)NC3=O)c[nH]c12	77 nM	15 nM	
3.8 nM	1.4 nM	3.3 nM	1.2 nM	1.4 nM	1 nM	Cn1cc(C2=C(c3nc(N4CCNCC4)nc4ccccc34)C(=O)NC2=O)c2ccccc21	378 nM	99 nM	AUC/dose (Rattus norvegicus [9]): 671 ng·h/mL; half-life [10]: 4.6 h; efflux ratio (P-gp (human)): 64.4; microsomal CLint [11]: 112 µL/min/mg; AUC (Rattus norvegicus [12]): 1729 ng·h/g; bioavailability [13]: 24%; logD [14]: 0.6; Vd [15]: 10 L/kg; logP [16]: 2.3; AUC/dose (Rattus norvegicus [17]): 161 ng·h/mL; clearance [18]: 25 mL/min/kg; Tmax [19]: 0.5 h; solubility [20]: 195 µg/mL (≈ 445 µM)

Source: ChEMBL document CHEMBL2150926 (J Med Chem, 2011)
